Measurements from the supplement of paper PMC11208160.

assay: recombinant UMI read abundance after kanamycin selection (control-corrected) (log10(CPM+1)); higher = more efficient recombination; extreme values may be limits of the assay; sequences stand for … in AGTGCAGAGAAAATCGGCCAGTTTTCTCTGCCTGCAGTCCGCATGCCGTGGGACCCCTTGGGTTCTAACCTGTTGCCTAGATTTATGCAGCGGACTGCCTTTCTCCCAAAGTGATAAACCGG…AGGTTGGTTTCACT; site = the 11-nt donor
Method in brief: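 Reported values are log10(CPM+1) from a pooled Escherichia coli screen of donor and donor-binding-loop pairs for the IS621 bridge recombinase. Selection used IPTG (0.07 mM) plus kanamycin, against unselected plating, each in two replicates. Recombinant UMIs were amplified across the donor–target junction, sequenced, converted to CPM, averaged over replicates and scaled by control-derived factors.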
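Note: IS621 bridge recombinase in Escherichia coli cells against a fixed T5 target plasmid.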

Sequence | recombinant UMI read abundance (log10)
CGATTAGCATGGACCGGTTTTCCCGGTAATCCGTATTTGCT (site CGATCATCTAG) | 0
CAGGAACCATGGACCGGTTTTCCCGGTAATCCGTATTTGAT (site CAGGAACCTAT) | 0
CTTCTCCCATGGACCGGTTTTCCCGGTAATCCGTATTTGTA (site CTTCTCTCTTA) | 0.837
AACCTTTCATGGACCGGTTTTCCCGGTAATCCGTATTTGAC (site AGCCTTTCTGT) | 0
CTGCCCACATGGACCGGTTTTCCCGGTAATCCGTATTTGCG (site CTGCCCACTCG) | 1.76
TCCGAGACATGGACCGGTTTTCCCGGTAATCCGTATTTGCG (site TCGGAGACTCG) | 0.0214
GTGCATGCATGGACCGGTTTTCCCGGTAATCCGTATTTGGT (site GTGCATACTAC) | 1.69
AGTCCAACATGGACCGGTTTTCCCGGTAATCCGTATTTGTA (site AGTCCAACTTA) | 0.694
GTTCAAGCATGGACCGGTTTTCCCGGTAATCCGTATTTGCA (site GTTCCAGCTTG) | 0
GTGCATGCATGGACCGGTTTTCCCGGTAATCCGTATTTGGT (site GAGCATGCTAC) | 0.0372
CGCACATCATGGACCGGTTTTCCCGGTAATCCGTATTTGCT (site CGAACATCTAG) | 0
ATCCTGACATGGACCGGTTTTCCCGGTAATCCGTATTTGAA (site ATCCTGACTTT) | 0.419
GATCGAGCATGGACCGGTTTTCCCGGTAATCCGTATTTGCA (site GGTCGAGCTTG) | 1.15
CTCAATCCATGGACCGGTTTTCCCGGTAATCCGTATTTGTT (site CTCAATCCTAA) | 1.41
AGAAAGACATGGACCGGTTTTCCCGGTAATCCGTATTTGCG (site AGGAAGACTTG) | 0
CTAGTATCATGGACCGGTTTTCCCGGTAATCCGTATTTGAA (site CTAGTATCTAT) | 2.59
GTACGAGCATGGACCGGTTTTCCCGGTAATCCGTATTTGCA (site GTGCGAGCTTG) | 2.02
CCGCCGACATGGACCGGTTTTCCCGGTAATCCGTATTTGTT (site CCGCCGACTAA) | 0.275
TCCGCCGCATGGACCGGTTTTCCCGGTAATCCGTATTTGCG (site TCCTCCGCTCG) | 0.00863
AAGAAGACATGGACCGGTTTTCCCGGTAATCCGTATTTGCC (site AAGAAGACTGG) | 2.47
TGGCCGGCATGGACCGGTTTTCCCGGTAATCCGTATTTGGC (site TGGCCGGCTGT) | 0
GCAGTCGCATGGACCGGTTTTCCCGGTAATCCGTATTTGCG (site GCAGTCGCTCG) | 0.764
TATTTGGCATGGACCGGTTTTCCCGGTAATCCGTATTTGTC (site TATTTGGCTGA) | 0
AACTTGACATGGACCGGTTTTCCCGGTAATCCGTATTTGCT (site GACTTGACTAG) | 0.665
CTGGAAACATGGACCGGTTTTCCCGGTAATCCGTATTTGGA (site CTGGAAACTTG) | 0

Sequence | recombinant UMI read abundance (log10)
AATGTTTCATGGACCGGTTTTCCCGGTAATCCGTATTTGAC (site AATGTGTCTGT) | 0
CACCATGCATGGACCGGTTTTCCCGGTAATCCGTATTTGCG (site CACCATGCTCG) | 1.28
AGCAATCCATGGACCGGTTTTCCCGGTAATCCGTATTTGAA (site CGCAATCCTTT) | 0
AGCTCAGCATGGACCGGTTTTCCCGGTAATCCGTATTTGTG (site AGCTCAGCTCT) | 0.362
CTTGGAACATGGACCGGTTTTCCCGGTAATCCGTATTTGTT (site CTTGGAACTAA) | 1.36
CCGATTACATGGACCGGTTTTCCCGGTAATCCGTATTTGCT (site CCGATTACTAG) | 0.743
GCCACGCCATGGACCGGTTTTCCCGGTAATCCGTATTTGTA (site GGCACGCCTTA) | 0.204
AATTATGCATGGACCGGTTTTCCCGGTAATCCGTATTTGGG (site AATTATGCTGC) | 0
TCATACTCATGGACCGGTTTTCCCGGTAATCCGTATTTGCA (site TCCTACTCTTG) | 1.79
GTGGATGCATGGACCGGTTTTCCCGGTAATCCGTATTTGGT (site GTGAATGCTAC) | 2.1
ACACGAACATGGACCGGTTTTCCCGGTAATCCGTATTTGGC (site ACACGAACTGC) | 2.77
AGAAAGGCATGGACCGGTTTTCCCGGTAATCCGTATTTGCT (site GGAAAGGCTAG) | 0.0101
AGCAAGGCATGGACCGGTTTTCCCGGTAATCCGTATTTGCT (site AGGAAGGCTAG) | 0.0349
CGGAGGACATGGACCGGTTTTCCCGGTAATCCGTATTTGCA (site CGGAGGACTTG) | 2.78
AGCCTAACATGGACCGGTTTTCCCGGTAATCCGTATTTGCT (site AGCCTAACTAG) | 0
GTCATGGCATGGACCGGTTTTCCCGGTAATCCGTATTTGAA (site GTCATGGCTTT) | 1.99
GTAGTGTCATGGACCGGTTTTCCCGGTAATCCGTATTTGAC (site CTAGTATCTGT) | 2.03
AGTAGGGCATGGACCGGTTTTCCCGGTAATCCGTATTTGAG (site AGTAGGGCTCT) | 1.41
ATCCAACCATGGACCGGTTTTCCCGGTAATCCGTATTTGAG (site ATCCAAACTCT) | 0.0118
TGGCCGGCATGGACCGGTTTTCCCGGTAATCCGTATTTGGC (site TCGCCGGCTGC) | 0
CCCAGCTCATGGACCGGTTTTCCCGGTAATCCGTATTTGCA (site CCCAGCTCTTG) | 2.3
GAGGATTCATGGACCGGTTTTCCCGGTAATCCGTATTTGTT (site GAAGATTCTAA) | 1.46
GAGCTCACATGGACCGGTTTTCCCGGTAATCCGTATTTGCT (site GAGCTCACTAA) | 1.28
ATCCGTCCATGGACCGGTTTTCCCGGTAATCCGTATTTGAT (site AACCGTCCTAT) | 0.00762
CACCGTACATGGACCGGTTTTCCCGGTAATCCGTATTTGCT (site CGCCGTACTAG) | 0.614

Sequence | recombinant UMI read abundance (log10)
TGGAATGCATGGACCGGTTTTCCCGGTAATCCGTATTTGTT (site CGGAATCCTAA) | 0.00325
GGATAGACATGGACCGGTTTTCCCGGTAATCCGTATTTGAC (site GGATAGACTGA) | 0
GTCGCCCCATGGACCGGTTTTCCCGGTAATCCGTATTTGGC (site GTCGCCCCTGC) | 0
ATGTAGGCATGGACCGGTTTTCCCGGTAATCCGTATTTGGG (site ATGTAGGCTGC) | 0
TTATCTGCATGGACCGGTTTTCCCGGTAATCCGTATTTGTG (site TTACCTGCTCA) | 0.0587
GGGGCACCATGGACCGGTTTTCCCGGTAATCCGTATTTGCA (site GGGGCACCTAG) | 0.0125
AGCAATCCATGGACCGGTTTTCCCGGTAATCCGTATTTGAA (site AGCAATCCTTT) | 1.33
ACTAGCGCATGGACCGGTTTTCCCGGTAATCCGTATTTGGT (site ACTAGTGCTAC) | 0.00815
CAGTCGGCATGGACCGGTTTTCCCGGTAATCCGTATTTGGG (site CAGTCGCCTCC) | 0.0091
TGAGCCTCATGGACCGGTTTTCCCGGTAATCCGTATTTGAC (site TGAGCCTCTGT) | 2.84
GAATGGACATGGACCGGTTTTCCCGGTAATCCGTATTTGCA (site GAATGGGCTTG) | 2.41
AGAGTGGCATGGACCGGTTTTCCCGGTAATCCGTATTTGGT (site TGAGTGGCTAC) | 0.546
AGCAAGACATGGACCGGTTTTCCCGGTAATCCGTATTTGCT (site AGCAAGACTAG) | 1.94
CGATCTGCATGGACCGGTTTTCCCGGTAATCCGTATTTGCT (site CGATCATCTAG) | 0
TGGTCCCCATGGACCGGTTTTCCCGGTAATCCGTATTTGTA (site TGATCCCCTTA) | 0
TTGGTAACATGGACCGGTTTTCCCGGTAATCCGTATTTGAC (site TTGGTAACTGT) | 2.33
GTCTACACATGGACCGGTTTTCCCGGTAATCCGTATTTGCT (site GTCTACACTAG) | 2.05
GAATGCACATGGACCGGTTTTCCCGGTAATCCGTATTTGTA (site GAATGCACTTA) | 1.87
GTCCGAGCATGGACCGGTTTTCCCGGTAATCCGTATTTGCA (site GTCCGAGCTTG) | 1.59
GTGGAAGCATGGACCGGTTTTCCCGGTAATCCGTATTTGTG (site GTGGATGCTCA) | 0.605
CTGCTACCATGGACCGGTTTTCCCGGTAATCCGTATTTGCT (site CTGTTACCTAG) | 0
ATGTTTGCATGGACCGGTTTTCCCGGTAATCCGTATTTGCG (site ATGTTTGCTCG) | 1.95
TGTTCCCCATGGACCGGTTTTCCCGGTAATCCGTATTTGCA (site TGTTCCCCTTT) | 0.0133
GTTAGAGCATGGACCGGTTTTCCCGGTAATCCGTATTTGTG (site GTTAGAGCTCA) | 1.74
AGCTCACCATGGACCGGTTTTCCCGGTAATCCGTATTTGGG (site AGCTCATCTCC) | 0
